{"source": "patent EP0137294A2", "about": "“Gonadoliberin and gonadoliberin agonists in the treatment of metabolic diseases due to too small a parathormone level” (HOECHST AKTIENGESELLSCHAFT, priority 1983, dated 1985)", "key": {"[1]": {"settings": "je nach Test; literature (Vitamins and Hormons 38, 1980; J. Med. Chem. 25, 1982); cited from earlier work"}, "Parathormon": {"system": "Parathormon", "test": "Plasma levels of parathormone and Ca2+ in Ca2+-infused anaesthetised rats after i.v. injection", "assay_type": "in vivo, Wistarratten", "settings": "for Stimulierung des PTH: Ratten", "source_text": "(§1) In Ratten wurde durch eine Ca^2+-Gluconat-Infusion der Plasma-Ca^2+-Spiegel erhöht. Durch diese Infusion wird der PTH-Spiegel suppremiert (The New England J. Med. 307, 1982, S. 226 - 228). Eine Bolusinjektion der Gonadoliberinagonisten erhöhte jedoch signifikant den PTH-Spiegel gegenüber den Kontrollen und potenzierte das Plasma-Ca^2+. Das 30 Minuten nach der Injektion der Gonadoliberinagonisten erhöhte PTH bewirkte nach 60 Minuten einen signifikanten Serum-Ca^2+-Anstieg. Daß diese Beeinflußung des Plasma-Ca^2+-Spiegels durch endogenes PTH oder PTH selbst einen Einfluß auf den Blutdruck hat, wurde an einer Frau mit zu hohem Blutdruck überprüft. Nach einmaliger intranasaler Gabe von 100 mcg Gonadoliberin, was bei einer Resorptionsrate von 2 - 5 % also nur etwa 2 - 5 mcg resorbierten Gonadoliberins entspricht, konnte der erhöhte Blutdruck 8 Stunden lang stark gesenkt werden.\nZwei Gruppen von je 31 Wistarratten wurden mit Pentobarbital (45 mg/kg i.p.) narkotisiert. Man entnahm von allen Tieren eine Blutprobe (Ausgangswert). […] Nach 30, 60, 90, 120 und 180 Minuten wurde ein Teil der Tiere getötet und entblutet. Das Blutserum wurde auf Ca^2+ und Parathormon untersucht.\nIn beiden-Figuren ist bei den einzelnen Meßpunkten die Anzahl n der Messungen sowie die Standardabweichung des Meßwertes (graphisch) angegeben."}, "Plasma-Glucose": {"system": "Plasma-Glucose", "settings": "Kaninchen, Glucosebolus 500 mg/kg i.v.; 5 ng/kg i.v.; after 70 - 90 Minuten; Verum-Gruppe vs Placebo-Gruppe", "method": "Der Einfluß auf den Blutzucker. wurde zunächst an Kaninchen überprüft. Kaninchen wurden zur Hemmung des endogen Glucagons mit einem Glucosebolus versehen.\nJe 3 wachen Kaninchen gab man einen Glucosebolus (500 mg/ kg i.v.). […] Nach 10, 30, 40, 50, 60, 70, 80 und 90 Minuten wurde Blut abgenommen und daraus die Blutglucose bestimmt.\nBei den einzelnen Meßpunkten ist jeweils graphisch die Standardabweichung des Meßwertes angegeben (n ist jeweils 3)."}, "[2]": {"test": "Treatment of muscle pain (McArdle-Erkrankung) in a person, intranasal dosing", "assay_type": "in vivo, Mensch", "source_text": "[…] mit starken Muskelschmerzen am Oberarm (McArdle-Erkrankung) gab man 100 mcg Gonadoliberin intra- nasal. Die starken Dauerschmerzen verschwanden nach etwa 15 Minuten. Am Anfang der Behandlung wurde mehrmals täglich (3 mal), später 2 mal und dann nur noch einmal täglich appliziert um einer Tachyphylaxie vorzubeugen. […] Der anfangs sehr schwache Blutdruck der Patientin von 90/60 wurde interessanterweise nicht weiter gesenkt, sondern leicht erhöht, so daß er sich während der Therapie auf 110/65 einpendelte. Diese kleinen Gonadoliberindosen wirken also nicht generell blutdrucksenkend ', sondern können auch bei niedrigem Blutdruck blutdruckerhöhend wirken.\nEine Frau, 46 Jahre alt, hatte starke Schmerzen im Oberarm. Der Arm konnte nicht vom Körper weg bewegt werden. Nach einer intranasalen Applikation von 100 µg Gonadoliberin war der Dauerschmerz in Ruhehaltung verschwunden. Der sehr schwache Blutdruck von 90/60 stieg während der Behandlung mit Gonadoliberin auf 110/65. Am ersten Tag wurde insgesamt 3 mal, am zweiten und dritten Tag 2 mal und am vierten und folgenden Tagen nur noch einmal täglich am Morgen therapiert. Im Lauf der Therapie wurden auch die Bewegungsschmerzen weniger und der Arm konnte wieder normal bewegt werden."}, "[3]": {"test": "Blood pressure lowering in a hypertensive person after intranasal dosing", "assay_type": "in vivo, Mensch", "settings": "for systolischer Blutdruck: hypertensive person, 100 µg intranasal, baseline etwa 150 mm Hg", "source_text": "as §1\nEine hypertensive, 48 Jahre alte Frau, deren Bluthochdruck mit ß-Blockern behandelt wird, setzte ihre Be-.handlung am Versuchstag aus. Versuchsbeginn: 17.00 Uhr.\nDer systolische Blutdruck von etwa 150 mm Hg sank nach intranasaler Gabe von 100 µg Gonadoliberin innerhalb von 30 Minuten auf etwa 125 mm Hg, blieb 90 Minuten bei 125 mm Hg und stieg dann für die nächsten 4 Stunden auf 130 mm Hg. Nach einer 8-stündigen Bettruhe, während der die Versuchsperson ausgezeichnet schlief, war der Blutdruck auf etwa 137 mm Hg gestiegen."}, "[4]": {"test": "Intranasal absorption of Gonadoliberin", "assay_type": "in vivo, Mensch", "settings": "intranasal dose of 100 mcg, calculated from the Resorptionsrate"}, "[5]": {"settings": "person with high blood pressure, single intranasal dose of 100 mcg"}}, "note": "“Also recorded” adds a separate entry of the source."}
{"compound": "CC(C)C[C@H](NC(=O)[C@@H](Cc1ccc2ccccc2c1)NC(=O)[C@H](Cc1ccc(O)cc1)NC(=O)[C@H](CO)NC(=O)[C@H](Cc1c[nH]c2ccccc12)NC(=O)[C@H](Cc1cnc[nH]1)NC(=O)[C@@H]1CCC(=O)N1)C(=O)N[C@@H](CCCNC(=N)N)C(=O)N1CCC[C@H]1C(=O)NCC(N)=O", "note": "[[D-3-(2-Naphthyl)-Ala^6] Gonadoliberin]", "values": [{"measurement": "Wirkung relative to Gonadoliberin (mal stärker)", "setting": "[1]", "result": "noch höhere Aktivitäten"}]}
{"compound": "[D-Ser(Bu^t) ^6] Gonadoliberin-(1-9)-nonapeptid-ethylamid [Buserelin]", "values": [{"measurement": "Stimulierung des PTH", "setting": "Parathormon; dose 5 ng/kg", "result": "stimulieren"}, {"measurement": "Parathormon im Blutserum", "setting": "Parathormon; Wistarratten, Ca2+-Infusion 30 mg/kg/h, 5 ng/kg i.v., after 30 Minuten, Verum-Gruppe vs Placebogruppe", "result": "signifikant an"}, {"measurement": "Ca^2+-Spiegel im Blutserum", "setting": "Parathormon; Wistarratten, Ca2+-Infusion 30 mg/kg/h, 5 ng/kg i.v., after 60 Minuten, Verum-Gruppe vs Placebogruppe", "result": "deutlich erhöht"}, {"measurement": "Blutglucosewerte", "setting": "Plasma-Glucose", "result": "signifikant erhöht"}]}
{"compound": "CC(C)C[C@H](NC(=O)CNC(=O)[C@H](Cc1ccc(O)cc1)NC(=O)[C@H](CO)NC(=O)[C@H](Cc1c[nH]c2ccccc12)NC(=O)[C@H](Cc1cnc[nH]1)NC(=O)[C@@H]1CCC(=O)N1)C(=O)N[C@@H](CCCNC(=N)N)C(=O)N1CCC[C@H]1C(=O)NCC(N)=O", "note": "[Gonadoliberin]", "values": [{"measurement": "time until the starke Dauerschmerzen disappeared", "setting": "[2]; person with muscle pain in the upper arm (McArdle-Erkrankung), 100 mcg intranasal", "result": "~15", "unit": "Minuten"}, {"measurement": "Bewegungsschmerzen / movement of the arm", "setting": "[2]; person with muscle pain, 100 µg intranasal 3 to 1 times daily, in the course of therapy", "result": "ohne Schmerzen bewegt; also recorded: weniger"}, {"measurement": "Blutdruck", "setting": "[2]; person with muscle pain, 100 µg intranasal, during therapy, baseline 90/60", "result": "110/65"}, {"measurement": "Dauerschmerz in Ruhehaltung", "setting": "[2]; person, upper arm pain, 100 µg intranasal", "result": "verschwunden"}, {"measurement": "systolischer Blutdruck", "setting": "[3]; after a subsequent 8-hour bed rest", "result": "~137", "unit": "mm Hg"}, {"measurement": "systolischer Blutdruck", "setting": "[3]; maintained for 90 Minuten after the fall", "result": 125, "unit": "mm Hg"}, {"measurement": "systolischer Blutdruck", "setting": "[3]; the following 4 Stunden", "result": 130, "unit": "mm Hg"}, {"measurement": "systolischer Blutdruck", "setting": "[3]; within 30 Minuten", "result": "~125", "unit": "mm Hg"}, {"measurement": "duration of blood pressure lowering", "setting": "[3]; [5]", "result": 8, "unit": "Stunden"}, {"measurement": "erhöhter Blutdruck", "setting": "[3]; [5]", "result": "stark gesenkt"}, {"measurement": "resorbiertes Gonadoliberin", "setting": "[4]", "result": "2 to 5", "unit": "µg"}, {"measurement": "Stimulierung des PTH", "setting": "Parathormon; dose 50 ng/kg", "result": "stimulieren"}]}
{"compound": "Cc1cc(C)c(C[C@@H](NC(=O)[C@H](Cc2ccc(O)cc2)NC(=O)[C@H](CO)NC(=O)[C@H](Cc2c[nH]c3ccccc23)NC(=O)[C@H](Cc2cnc[nH]2)NC(=O)[C@@H]2CCC(=O)N2)C(=O)N[C@@H](CC(C)C)C(=O)N[C@@H](CCCNC(=N)N)C(=O)N2CCC[C@H]2C(=O)NCC(N)=O)c(C)c1", "note": "[[D-3-(2.4.6.Trimethylphenyl)-Ala^6]-Gonadoliberin]", "values": [{"measurement": "Wirkung relative to Gonadoliberin (mal stärker)", "setting": "[1]", "result": "noch höhere Aktivitäten"}]}
